Experimental data taken from the supplement of paper PMC10307832.

Tests used:
Experiment in all cases: relative viability (nuclei count vs DMSO), 5 days (fraction); higher = more cells survive
[1] = compound: Cc1ccc2nc(NCCN)c3ncc(C)n3c2c1 + Cc1nc(NC(=O)N2CCC[C@H]2C(N)=O)sc1-c1ccnc(C(C)(C)C(F)(F)F)c1 [Alpelisib] (partner 2 µM)
How it was run: (§1)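 After 5 days of treatment, lung cancer cells in 1536-well plates were fixed and stained in a single step (final 0.05% Triton X-100, 1% formaldehyde, 1 ug/ml Hoechst) and their nuclei counted on 4× images. Treatment had been applied by pin tool the day after seeding as one drug alone or as a fixed anchor-drug dose with five library-drug doses (not always all listed) in √10 steps. Relative viability is the nuclei count of treated wells divided by that of vehicle wells, and values are medians of duplicate plates.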

[2] = compound: Cc1ccc2nc(NCCN)c3ncc(C)n3c2c1 + Cc1nc(Nc2ncc(C(=O)Nc3c(C)cccc3Cl)s2)cc(N2CCN(CCO)CC2)n1 [Dasatinib] (partner 0.075 µM)
How it was run: as §1

[3] = compound: O=C(/C=C/c1ccccc1)NC(NC(=S)Nc1cccc2cccnc12)C(Cl)(Cl)Cl [Salubrinal] + COc1cc2c(Oc3ccc(NC(=O)C4(C(=O)Nc5ccc(F)cc5)CC4)cc3F)ccnc2cc1OCCCN1CCOCC1 [Foretinib] (partner 0.25 µM)
How it was run: as §1

[4] = compound: O=C(/C=C/c1ccccc1)NC(NC(=S)Nc1cccc2cccnc12)C(Cl)(Cl)Cl [Salubrinal] + N=C(N)NC(=N)NCCc1ccccc1 [Phenformin] (partner 250 µM)
How it was run: as §1

Cell Line	relative viability ([1]; first compound 0.04 µM)	relative viability ([1]; first compound 0.1265 µM)	relative viability ([1]; first compound 0.4 µM)	relative viability ([1]; first compound 1.265 µM)	relative viability ([1]; first compound 4 µM)	relative viability ([2]; first compound 0.04 µM)	relative viability ([2]; first compound 0.1265 µM)	relative viability ([2]; first compound 0.4 µM)	relative viability ([2]; first compound 1.265 µM)	relative viability ([2]; first compound 4 µM)	relative viability ([3]; first compound 0.08 µM)	relative viability ([3]; first compound 0.253 µM)	relative viability ([3]; first compound 0.8 µM)	relative viability ([3]; first compound 2.53 µM)	relative viability ([3]; first compound 8 µM)	relative viability ([4]; first compound 0.08 µM)	relative viability ([4]; first compound 0.253 µM)	relative viability ([4]; first compound 0.8 µM)	relative viability ([4]; first compound 2.53 µM)	relative viability ([4]; first compound 8 µM)
NCI-H2347	1.06	0.978	1.06	0.91	1.01	0.32	0.333	0.355	0.266	0.317	0.906	1.15	1.4	0.797	1.08	0.321	0.35	0.399	0.363	0.43
NCI-H2405	0.835	0.698	0.801	0.728	0.696	0.204	0.192	0.188	0.185	0.208	1.06	1.05	1.05	1.05	1.01	0.42	0.387	0.441	0.329	0.408
NCI-H3122	0.88	0.942	0.812	0.779	0.855	0.78	0.901	0.707	1.02	0.869	1.07	0.924	1.03	0.986	0.964	0.42	0.371	0.412	0.367	0.356
PC-3 [JPC-3]	1.03	1.08	1.05	0.983	1.03	1.11	0.995	0.857	1.01	0.932	0.99	0.918	1.07	1	0.998	0.471	0.448	0.529	0.475	0.467
PC-14	1.03	0.893	0.92	0.896	0.806	0.285	0.276	0.299	0.206	0.0944	1.02	0.873	1.1	1	0.931	0.696	0.551	0.576	0.677	0.687
RERF-LC-KJ	0.843	0.769	0.784	0.762	0.81	0.873	0.698	0.757	0.748	0.503	0.959	0.699	0.941	0.921	0.706	0.442	0.39	0.414	0.408	0.413
SK-LU-1	1.11	0.961	1.1	1.01	0.937	0.162	0.202	0.181	0.166	0.167	0.947	0.898	0.97	0.817	0.775	0.647	0.4	0.594	0.555	0.435
SK-MES-1	0.904	0.848	0.846	0.866	0.848	0.489	0.339	0.392	0.35	0.305	1.08	0.85	1.04	1.12	0.713	0.703	0.64	0.668	0.672	0.605
SW 1573	0.81	0.667	0.871	0.572	0.676	0.576	0.534	0.468	0.48	0.244	0.875	0.719	0.979	0.954	1.07	0.388	0.327	0.389	0.332	0.299
